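Values below derive from 48-hour exposures of cells grown in 96-well plates, with endpoints linearly interpolated between the two concentrations bracketing the appropriate inhibition level. TGI: concentration producing complete growth inhibition.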
Tests used:
Assay in all cases: NCI anticancer screen, dose series, 48 h
786-0 renal = test system: 786-0 renal
A498 renal = test system: A498 renal
A549 NSCLC = test system: A549 NSCLC
CAKI-1 renal = test system: CAKI-1 renal
CCRF-CEM leukemia = test system: CCRF-CEM leukemia
DLD-1 colon = test system: DLD-1 colon
EKVX NSCLC = test system: EKVX NSCLC
HCC-2998 colon = test system: HCC-2998 colon
HCT-116 colon = test system: HCT-116 colon
HCT-15 colon = test system: HCT-15 colon
HL-60(TB) leukemia = test system: HL-60(TB) leukemia
HOP-62 NSCLC = test system: HOP-62 NSCLC
HOP-92 NSCLC = test system: HOP-92 NSCLC
HT29 colon = test system: HT29 colon
IGROV1 ovarian = test system: IGROV1 ovarian
K-562 leukemia = test system: K-562 leukemia
KM20L2 colon = test system: KM20L2 colon
LXFL 529 NSCLC = test system: LXFL 529 NSCLC
M14 melanoma = test system: M14 melanoma
M19-MEL melanoma = test system: M19-MEL melanoma
MALME-3M melanoma = test system: MALME-3M melanoma
MOLT-4 leukemia = test system: MOLT-4 leukemia
NCI-H226 lung = test system: NCI-H226 lung
NCI-H23 lung = test system: NCI-H23 lung
NCI-H460 lung = test system: NCI-H460 lung
NCI-H522 lung = test system: NCI-H522 lung
OVCAR-3 ovarian = test system: OVCAR-3 ovarian
OVCAR-4 ovarian = test system: OVCAR-4 ovarian
OVCAR-8 ovarian = test system: OVCAR-8 ovarian
RXF 393 renal = test system: RXF 393 renal
SF-268 CNS = test system: SF-268 CNS
SF-539 CNS = test system: SF-539 CNS
SK-MEL-28 melanoma = test system: SK-MEL-28 melanoma
SK-MEL-5 melanoma = test system: SK-MEL-5 melanoma
SK-OV-3 ovarian = test system: SK-OV-3 ovarian
SN12C renal = test system: SN12C renal
SNB-19 CNS = test system: SNB-19 CNS
SNB-75 CNS = test system: SNB-75 CNS
SNB-78 CNS = test system: SNB-78 CNS
SR leukemia = test system: SR leukemia
SW-620 colon = test system: SW-620 colon
U251 CNS = test system: U251 CNS
UACC-257 melanoma = test system: UACC-257 melanoma
UO-31 renal = test system: UO-31 renal
XF 498 CNS = test system: XF 498 CNS
ACHN renal = test system: ACHN renal
COLO 205 colon = test system: COLO 205 colon
DMS 114 small cell lung = test system: DMS 114 small cell lung
DMS 273 small cell lung = test system: DMS 273 small cell lung
HOP-18 NSCLC = test system: HOP-18 NSCLC
KM12 colon = test system: KM12 colon
LOX IMVI melanoma = test system: LOX IMVI melanoma
OVCAR-5 ovarian = test system: OVCAR-5 ovarian
RPMI-8226 leukemia = test system: RPMI-8226 leukemia
SF-295 CNS = test system: SF-295 CNS
SK-MEL-2 melanoma = test system: SK-MEL-2 melanoma
TK-10 renal = test system: TK-10 renal
UACC-62 melanoma = test system: UACC-62 melanoma

Measured: TGI

Nc1cc(C(=O)NC2C3CC4CC(C3)CC2C4)[nH]c(=S)n1 (configuration not stated)
not listed: ACHN renal | COLO 205 colon | DMS 114 small cell lung | DMS 273 small cell lung | HOP-18 NSCLC | KM12 colon | LOX IMVI melanoma | OVCAR-5 ovarian | RPMI-8226 leukemia | SF-295 CNS | SK-MEL-2 melanoma | TK-10 renal | UACC-62 melanoma
> 100 µM: all other assays above

CN(C)c1ccc(C(C#N)NNC(=O)Cc2ccccc2)cc1 (configuration not stated)
not listed: A498 renal | EKVX NSCLC | HCC-2998 colon | SNB-19 CNS | XF 498 CNS
> 100 µM: all other assays above

COP(=O)(CC(=O)C1OC(C)(C)OC1C(O)COCc1ccccc1)OC (configuration not stated)
not listed: NCI-H522 lung | SK-OV-3 ovarian | SNB-19 CNS | XF 498 CNS
> 100 µM: all other assays above

Source: PubChem BioAssay (NCI)
